Reference: US20250263376A1, “(E)-N-CINNAMOYLAMINOALKANOLS WITH MELANOGENESIS INHIBITORY ACTIVITY” (Uniwersytet Jagiellonski, priority 2024, published 2025)

Tests used:
keratinocytes (HaCaT) = assay: Safety, MTT test in keratinocytes; type: cell-based; details: 48 hours
Method: (§1) In order to test the safety of the compounds, both normal human cells were used: keratinocytes (HaCaT), fibroblasts (BJ), primary melanocytes that occur in the skin, as well as human cancer cells: the hepatocarcinoma line HepG2 and the neuroblastoma line SH-SY5Y, which are considered a model for the assessment of hepatocytotoxicity and neurocytotoxicity. The concentrations of the tested compounds in the range of […] were used in the studies. The cell lines used in the research were purchased from the American Type Culture Collection (ATCC) and were cultured in media recommended by the manufacturer with the addition of FBS and antibiotics in an incubator ensuring appropriate culture conditions, i.e. humidity, temperature and CO2 concentration. Cells were seeded into multiwell plates and incubated with the test compounds for 48 hours. After this time, MTT and LDH tests were performed to assess cell viability. The MTT test is based on the ability to transform the substrate: [3-(4,5-dimethyl-2-thiazolyl)-2,5-diphenyl-2H-tetrazolium bromide into a colored product only by living cells. The absorbance at 570 nm, which corresponds to the absorption maximum for the product, is directly proportional to cell viability. The LDH test is based on testing the activity of the enzyme lactate dehydrogenase in the culture medium, which is released from cells as a result of damage to the cell membrane, e.g. as a result of cell death. Triton X-100 was used as a positive control in the test. The determination is colorimetric, the substrate is transformed by the released enzyme into a colored product, an increase in absorbance indicates a larger amount of the released enzyme, and thus confirms greater damage to cell membranes. Tables 7 and 8 present the results obtained, which correspond to the viability of cells incubated with the compounds in relation to the viability of cells constituting a control sample, i.e. incubated with the solvent (DMSO) at the same concentration as in the case of the groups tested in the MTT test or in relation to the results obtained for the Triton X-100 positive control in the LDH test. They indicate that the compounds are safe at the concentrations tested.

fibroblasts (BJ) = assay: Safety, LDH test in fibroblasts; type: cell-based; details: 48 hours, vs Triton X-100
Method: as §1

primary melanocytes = assay: Safety, MTT test in primary melanocytes; type: cell-based; details: 48 hours
Method: as §1

hepatocarcinoma HepG2 [1] = assay: Safety, MTT test in HepG2; type: cell-based; details: 48 hours
Method: as §1

hepatocarcinoma HepG2 [2] = assay: Safety, LDH test in HepG2; type: cell-based; details: 48 hours, vs Triton X-100
Method: as §1

neuroblastoma SH-SY5Y = assay: Safety, MTT test in SH-SY5Y; type: cell-based; details: 48 hours
Method: as §1

S. typhimurium TA100 = assay: Ames microplate test, TA100; type: cell-based, Salmonella typhimurium
Method: (§2) The study used the Ames microplate test (Ames MPF™ Penta 2 by Xenometrix, Allschwil, Switzerland). Growth medium, exposure medium, indicator medium, positive controls, hepatic microsomal fraction, NADP, glucose-6-phosphate, Salmonella typhimurium and Escherichia coli strains were components of the purchased experimental kit. Bacteria were grown overnight in growth medium. They were then exposed to the test compound at the appropriate concentration in exposure medium without or with the rat microsomal fraction S9 in 24-well plates for 90 min at 37° C. with shaking. Then, indicator medium was added to the wells and pipetted into 384-well plates, which were incubated for 48 hours at 37° C. without shaking. Results were assessed by counting the wells in which the medium turned yellow for each experimental condition.

CHO-K1 cells = assay: Cytotoxicity (MTT) in CHO-K1 cells before the micronucleus test; type: cell-based, Chinese hamster; details: 24 hours
Method: The assay was performed using a Chinese hamster ovary cell line (CHO-K1) purchased from the American Type Culture Collection (ATCC). The cells were cultured in F-12K medium with the addition of 10% fetal bovine serum (FBS) and antibiotics (streptomycin/penicillin) in an incubator at 37° C. and 5% CO2 concentration). Before the actual micronucleus test, a cytotoxicity assessment was performed to ensure that the actual test was performed only at safe concentrations. For this purpose, cells were transferred to 96-well plates and incubated with the tested compounds for 24 hours. After this time, the MTT test was performed and cell viability was assessed in comparison to the control group (cells cultured with DMSO at the same concentration as in the case of the tested samples).

S. typhimurium TA1535 = assay: Ames microplate test, TA1535;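 also: bacteria exposed 90 min at 37 °C in exposure medium, then 48 h in indicator medium in 384-well plates, yellow (revertant) wells counted per condition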
Method: as §2

[3] = test system: human reconstructed epidermis model EpiDerm; assay: Extended skin irritation test in reconstructed human epidermis EpiDerm; type: cell-based; details: 1.0% in 50% PEG (10 μL)
Method: Extended Skin Irritation Tests on Reconstructed Human Epidermis-Exposure Time Extended to 7 Days.
In order to perform extended skin irritation (safety) tests on the reconstructed human epidermis, the exposure time to the tested compounds was extended to 2 and 7 days in the human reconstructed epidermis model EpiDerm™ from MatTek. The epidermis was cultured according to the manufacturer's recommendations, using appropriate multi-well plates and culture media. Solutions of the tested compounds were applied to the epidermis using a positive displacement pipette and distributed using a sterile glass bulb headed Pasteur pipette. […] The epidermis was cultured in an incubator ensuring appropriate humidity, temperature (37° C.) and CO2 concentration (5%). The medium was replaced daily. After an appropriate incubation time, i.e. 2 days or 7 days, the epidermis was rinsed with sterile DPBS and incubated with MTT (Thiazolyl Blue Tetrazolium bromide) solution at 37° C. for 3 hours. After this time, a purple color of formazan was observed, correlated with tissue viability. […] Moreover, in the medium collected after the first 24 hours of EpiDerm epidermis culture, the level of interleukin 1α (Il-1α), which is a mediator of inflammation, was determined. Its level correlates with the unfavorable (irritating) effect of the tested substances on the epidermis. The level of IL-1α was determined using the Cayman Elisa test.

Compound | MTT, Keratinocytes (HaCaT) (keratinocytes (HaCaT); 100 μM) | MTT, Keratinocytes (HaCaT) (keratinocytes (HaCaT); 150 μM) | MTT, Keratinocytes (HaCaT) (keratinocytes (HaCaT); 200 μM) | MTT, Keratinocytes (HaCaT) (keratinocytes (HaCaT); 250 μM) | LDH, Fibroblasts (BJ) (fibroblasts (BJ); 100 μM) | LDH, Fibroblasts (BJ) (fibroblasts (BJ); 150 μM) | LDH, Fibroblasts (BJ) (fibroblasts (BJ); 200 μM) | LDH, Fibroblasts (BJ) (fibroblasts (BJ); 250 μM) | MTT, Primary melanocytes (primary melanocytes; 100 μM) | MTT, Primary melanocytes (primary melanocytes; 150 μM) | MTT, Primary melanocytes (primary melanocytes; 200 μM) | MTT, Primary melanocytes (primary melanocytes; 250 μM) | MTT, Hepatocarcinoma HepG2 (hepatocarcinoma HepG2 [1]; 100 μM) | MTT, Hepatocarcinoma HepG2 (hepatocarcinoma HepG2 [1]; 150 μM) | MTT, Hepatocarcinoma HepG2 (hepatocarcinoma HepG2 [1]; 200 μM) | MTT, Hepatocarcinoma HepG2 (hepatocarcinoma HepG2 [1]; 250 μM) | LDH, Hepatocarcinoma HepG2 (hepatocarcinoma HepG2 [2]; 100 μM) | LDH, Hepatocarcinoma HepG2 (hepatocarcinoma HepG2 [2]; 150 μM) | LDH, Hepatocarcinoma HepG2 (hepatocarcinoma HepG2 [2]; 200 μM) | LDH, Hepatocarcinoma HepG2 (hepatocarcinoma HepG2 [2]; 250 μM) | also measured
O=C(/C=C/c1ccc(Cl)cc1)NCCCO [H-330/21, (2E)-3-(4-chlorophenyl)-N-(3-hydroxypropyl)prop-2-enamide] | 102.03 ± 1.45 % of solvent control | 101.42 ± 2.04 % of solvent control | 97.07 ± 2.81 % of solvent control | 94.89 ± 1.06 % of solvent control | 4.74 percentage of positive control | 6.50 percentage of positive control | 14.25 percentage of positive control | 28.74 percentage of positive control | 101.42 ± 2.21 % of solvent control | 97.02 ± 4.49 % of solvent control | 93.78 ± 2.29 % of solvent control | 90.27 ± 2.25 % of solvent control | 100.73 ± 4.51 % of solvent control | 100.44 ± 3.93 % of solvent control | 100.86 ± 6.41 % of solvent control | 93.16 ± 1.71 % of solvent control | 5.38 percentage of positive control | 4.90 percentage of positive control | 12.16 percentage of positive control | 19.02 percentage of positive control | MTT, Neuroblastoma SH-SY5Y (neuroblastoma SH-SY5Y; 100 μM): 99.79 ± 5.34 % of solvent control; MTT, Neuroblastoma SH-SY5Y (neuroblastoma SH-SY5Y; 150 μM): 99.86 ± 3.76 % of solvent control; MTT, Neuroblastoma SH-SY5Y (neuroblastoma SH-SY5Y; 200 μM): 99.79 ± 3.97 % of solvent control; MTT, Neuroblastoma SH-SY5Y (neuroblastoma SH-SY5Y; 250 μM): 99.11 ± 3.66 % of solvent control
Cc1ccc(/C=C/C(=O)NCCCCCO)cc1 [H-415/21, (2E)-N-(5-hydroxypentyl)-3-(4-methylphenyl)prop-2-enamide] | 101.11 ± 2.03 % of solvent control | 101.78 ± 2.32 % of solvent control | 100.88 ± 1.40 % of solvent control | 88.54 ± 3.74 % of solvent control | 8.81 percentage of positive control | 8.75 percentage of positive control | 9.82 percentage of positive control | 16.63 percentage of positive control | 103.27 ± 1.88 % of solvent control | 99.89 ± 2.43 % of solvent control | 94.81 ± 2.92 % of solvent control | 87.64 ± 1.44 % of solvent control | 100.32 ± 1.75 % of solvent control | 99.54 ± 5.74 % of solvent control | 100.53 ± 3.98 % of solvent control | 98.90 ± 4.21 % of solvent control | 3.90 percentage of positive control | 7.24 percentage of positive control | 8.92 percentage of positive control | 15.47 percentage of positive control | MTT, Neuroblastoma SH-SY5Y (neuroblastoma SH-SY5Y; 100 μM): 100.68 ± 4.63 % of solvent control; MTT, Neuroblastoma SH-SY5Y (neuroblastoma SH-SY5Y; 150 μM): 99.32 ± 2.96 % of solvent control; MTT, Neuroblastoma SH-SY5Y (neuroblastoma SH-SY5Y; 200 μM): 100.27 ± 3.50 % of solvent control; MTT, Neuroblastoma SH-SY5Y (neuroblastoma SH-SY5Y; 250 μM): 101.71 ± 2.38 % of solvent control; Increase in the number of yellow wells compared to the reference level, TA100 (S. typhimurium TA100; 0.5 mM, without S9): 0.92; Increase in the number of yellow wells compared to the reference level, TA100 (S. typhimurium TA100; 1.0 mM, without S9): 0.58; Increase in the number of yellow wells compared to the reference level, TA100 (S. typhimurium TA100; 2.0 mM, without S9): 0.75; % Viability [mean], CHO-K1 (CHO-K1 cells; 100 μM): 102.2%; % Viability [mean], CHO-K1 (CHO-K1 cells; 150 μM): 102.8%; % Viability [mean], CHO-K1 (CHO-K1 cells; 200 μM): 87.2%; Increase in the number of yellow wells compared to the reference level, TA1535 (S. typhimurium TA1535; 0.5 mM, without S9): 0.21; Increase in the number of yellow wells compared to the reference level, TA1535 (S. typhimurium TA1535; 1.0 mM, without S9): 0.41; Increase in the number of yellow wells compared to the reference level, TA1535 (S. typhimurium TA1535; 2.0 mM, without S9): 0.10
O=C(/C=C/c1ccccc1)NCCCCCCO [H-425/21, (E)-N-(6-hydroxyhexyl)cinnamic acid amide] | – | – | – | – | – | – | – | – | – | – | – | – | – | – | – | – | – | – | – | – | Viability [% of control, mean ± SD] 2 days [3]: 99.75 ± 15.49 % of control; Viability [% of control, mean ± SD] 7 days [3]: 104.01 ± 1.11 % of control; Il-1α in culture medium ([3]; medium after first 24 hours): 60.29 ± 1.08 pg/mL; Increase in the number of yellow wells compared to the reference level, TA100 (S. typhimurium TA100; 0.5 mM, + S9): 0.50; Increase in the number of yellow wells compared to the reference level, TA100 (S. typhimurium TA100; 0.5 mM, without S9): 0.73; Increase in the number of yellow wells compared to the reference level, TA100 (S. typhimurium TA100; 1.0 mM, + S9): 0.69; Increase in the number of yellow wells compared to the reference level, TA100 (S. typhimurium TA100; 1.0 mM, without S9): 0.80; Increase in the number of yellow wells compared to the reference level, TA100 (S. typhimurium TA100; 2.0 mM, + S9): 0.58; Increase in the number of yellow wells compared to the reference level, TA100 (S. typhimurium TA100; 2.0 mM, without S9): 0.73; % Viability [mean], CHO-K1 (CHO-K1 cells; 100 μM): 87.6%; % Viability [mean], CHO-K1 (CHO-K1 cells; 150 μM): 83.8%; % Viability [mean], CHO-K1 (CHO-K1 cells; 200 μM): 88.0%; Increase in the number of yellow wells compared to the reference level, TA1535 (S. typhimurium TA1535; 0.5 mM, + S9): 0.54; Increase in the number of yellow wells compared to the reference level, TA1535 (S. typhimurium TA1535; 0.5 mM, without S9): 1.04; Increase in the number of yellow wells compared to the reference level, TA1535 (S. typhimurium TA1535; 1.0 mM, + S9): 0.40; Increase in the number of yellow wells compared to the reference level, TA1535 (S. typhimurium TA1535; 1.0 mM, without S9): 0.59; Increase in the number of yellow wells compared to the reference level, TA1535 (S. typhimurium TA1535; 2.0 mM, + S9): 0.94; Increase in the number of yellow wells compared to the reference level, TA1535 (S. typhimurium TA1535; 2.0 mM, without S9): 0.45
O=C(/C=C/c1ccc(Cl)cc1)NCCO [H-427/21, (2E)-3-(4-chlorophenyl)-N-(2-hydroxyethyl)prop-2-enamide] | 100.47 ± 3.65 % of solvent control | 98.15 ± 2.63 % of solvent control | 99.24 ± 3.00 % of solvent control | 89.94 ± 4.66 % of solvent control | 2.75 percentage of positive control | 5.92 percentage of positive control | 9.00 percentage of positive control | 17.32 percentage of positive control | 102.20 ± 2.24 % of solvent control | 100.57 ± 2.18 % of solvent control | 93.78 ± 2.18 % of solvent control | 85.19 ± 2.03 % of solvent control | 99.61 ± 4.37 % of solvent control | 98.44 ± 3.94 % of solvent control | 97.07 ± 4.00 % of solvent control | 100.08 ± 10.58 % of solvent control | 3.09 percentage of positive control | 4.45 percentage of positive control | 5.98 percentage of positive control | 13.51 percentage of positive control | MTT, Neuroblastoma SH-SY5Y (neuroblastoma SH-SY5Y; 100 μM): 100.48 ± 3.67 % of solvent control; MTT, Neuroblastoma SH-SY5Y (neuroblastoma SH-SY5Y; 150 μM): 100.96 ± 2.72 % of solvent control; MTT, Neuroblastoma SH-SY5Y (neuroblastoma SH-SY5Y; 200 μM): 101.30 ± 2.94 % of solvent control; MTT, Neuroblastoma SH-SY5Y (neuroblastoma SH-SY5Y; 250 μM): 102.60 ± 9.66 % of solvent control
